Laboratory results: publication PMC6009956, “Design, synthesis and biological activity of N^4-phenylsubstituted-7H-pyrrolo[2,3-d]pyrimidin-4-amines as dual inhibitors of aurora kinase A and epidermal growth factor receptor kinase” (Journal of Enzyme Inhibition and Medicinal Chemistry, 2017)
Read-outs that look alike come from different tables or passages of the source. One block for each compound: values may come before it.

Columns and labels:
[1] = test system: p-HH3 in FADU and SAS SCCHN cell lines; assay: Western blot of p-HH3 in FADU and SAS cells; format: cell-based; details: 10 nM
Method: Protein extracts (50 μg per lane) were electrophoretically separated on SDS-PAGE gels, transferred to membranes (Protran, Schleicher & Schuell, Dassel, Germany) and blotted with specific antibodies (actin, aurora A, aurora B: all from Sigma, Munich, Germany; S10-HH3: Millipore, Schwalbach, Germany; EGFR: Santa Cruz, Heidelberg, Germany; pEGFR: Invitrogen, Darmstadt, Germany; pAKT, pERK: both from New England Biolabs, Frankfurt, Germany).
Figure 4. Effects of compound 2 on EGFR and aurora kinases in growing SCCHN cell lines (A) Western blot analysis of EGFR (pEGFR, pERK, p-AKT) and aurora A (p-HH3) downstream target proteins following incubation with 100 μM compound 2 for the indicated time points in BHY and FADU SCCHN cell lines. (B) BHY and CAL cell lines treated for the indicated time points with 200 nM cetuximab. Western blot analysis of EGFR downstream targets. (long exposure and short exposure). […] Western blot analysis of p-HH3 at the indicated time points. Asterisk (*) represents unspecific band.

EGFR = EGFR (Homo sapiens, UniProt P00533); assay: ADP-Glo kinase assay, EGFR; format: biochemical; parameters: purchased BPS Bioscience (assay run externally by the vendor)
aurora A kinase (AURKA) = biological target: T1, aurora A kinase (AURKA) (Homo sapiens, UniProt O14965); assay: ADP-Glo kinase assay, Aurora A; format: biochemical
T1 construct: purchased BPS Bioscience (assay run externally by the vendor)
T1 sequence (O14965 1-403): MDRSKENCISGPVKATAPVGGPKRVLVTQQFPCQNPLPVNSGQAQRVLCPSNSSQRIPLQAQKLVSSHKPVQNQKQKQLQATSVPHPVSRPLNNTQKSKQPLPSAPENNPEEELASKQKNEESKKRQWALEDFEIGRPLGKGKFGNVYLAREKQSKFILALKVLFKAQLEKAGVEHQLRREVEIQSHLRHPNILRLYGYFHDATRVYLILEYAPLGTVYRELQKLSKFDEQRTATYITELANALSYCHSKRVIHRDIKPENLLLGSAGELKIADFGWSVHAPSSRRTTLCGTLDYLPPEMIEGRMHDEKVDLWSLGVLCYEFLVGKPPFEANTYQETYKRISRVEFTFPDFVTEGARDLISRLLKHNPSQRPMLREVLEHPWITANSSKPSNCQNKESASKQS

EGFR, sequence (P00533 25-1210): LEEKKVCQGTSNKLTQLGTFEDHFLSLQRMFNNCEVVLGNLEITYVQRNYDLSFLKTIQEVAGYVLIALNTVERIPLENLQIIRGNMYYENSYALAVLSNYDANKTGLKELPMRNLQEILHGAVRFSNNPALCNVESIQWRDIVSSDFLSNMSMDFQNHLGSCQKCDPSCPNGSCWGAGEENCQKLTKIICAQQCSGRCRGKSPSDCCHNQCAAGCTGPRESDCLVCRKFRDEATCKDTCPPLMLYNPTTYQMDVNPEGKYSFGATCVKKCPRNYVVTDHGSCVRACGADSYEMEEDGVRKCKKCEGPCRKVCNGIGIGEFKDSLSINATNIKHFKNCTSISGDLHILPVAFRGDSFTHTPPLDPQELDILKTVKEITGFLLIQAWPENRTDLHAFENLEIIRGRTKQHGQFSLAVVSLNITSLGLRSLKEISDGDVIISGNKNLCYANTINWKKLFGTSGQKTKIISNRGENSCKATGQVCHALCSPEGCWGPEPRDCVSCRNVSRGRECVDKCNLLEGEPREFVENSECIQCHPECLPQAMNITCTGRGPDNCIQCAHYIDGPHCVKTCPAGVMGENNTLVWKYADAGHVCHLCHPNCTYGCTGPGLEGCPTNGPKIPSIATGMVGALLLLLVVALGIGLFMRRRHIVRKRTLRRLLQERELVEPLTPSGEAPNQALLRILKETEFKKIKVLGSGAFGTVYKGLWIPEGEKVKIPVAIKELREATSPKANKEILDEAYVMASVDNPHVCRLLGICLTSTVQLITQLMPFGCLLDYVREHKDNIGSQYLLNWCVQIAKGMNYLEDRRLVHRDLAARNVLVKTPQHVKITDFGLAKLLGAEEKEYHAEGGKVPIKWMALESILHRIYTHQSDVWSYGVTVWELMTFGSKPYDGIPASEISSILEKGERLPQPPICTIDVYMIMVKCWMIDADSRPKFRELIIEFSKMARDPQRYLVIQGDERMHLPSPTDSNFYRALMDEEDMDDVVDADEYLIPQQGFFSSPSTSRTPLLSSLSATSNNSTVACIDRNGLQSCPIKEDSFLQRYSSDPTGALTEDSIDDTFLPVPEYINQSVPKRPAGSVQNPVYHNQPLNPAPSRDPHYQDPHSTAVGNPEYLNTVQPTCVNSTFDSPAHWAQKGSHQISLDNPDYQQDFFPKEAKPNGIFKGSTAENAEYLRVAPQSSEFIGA

SMILES: COc1cc(Nc2ncc3c(n2)-c2ccc(Cl)cc2C(c2c(F)cccc2OC)=NC3)ccc1C(=O)O [MLN8237]
Histone H3 phosphorylation (p-HH3) [1]: inhibition of histone H3 phosphorylation

IC50 (EGFR; 10 µM ATP, triplicate, read-out: EGFR IC50 ± SD): 0.0849 ± 0.0159 µM
IC50 (EGFR; 10 µM ATP/0.2 mg/ml Poly-Glu-Tyr, read-out: EGFR IC50 (dose-response curve, supplement)): 0.0845 µM
EGFR % Activity Set1 (EGFR; Log[nM] 0): 102%
EGFR % Activity Set2 (EGFR; Log[nM] 0): 96%
EGFR % Activity Set3 (EGFR; Log[nM] 0): 97%
EGFR % Activity Set1 (EGFR; Log[nM] 1.0): 102%
EGFR % Activity Set2 (EGFR; Log[nM] 1.0): 97%
EGFR % Activity Set3 (EGFR; Log[nM] 1.0): 96%
EGFR % Activity Set1 (EGFR; Log[nM] 1.5): 65%
EGFR % Activity Set2 (EGFR; Log[nM] 1.5): 61%
EGFR % Activity Set3 (EGFR; Log[nM] 1.5): 64%
EGFR % Activity Set1 (EGFR; Log[nM] 2.0): 50%
EGFR % Activity Set2 (EGFR; Log[nM] 2.0): 45%
EGFR % Activity Set3 (EGFR; Log[nM] 2.0): 52%
EGFR % Activity Set1 (EGFR; Log[nM] 2.5): 19%
EGFR % Activity Set2 (EGFR; Log[nM] 2.5): 19%
EGFR % Activity Set3 (EGFR; Log[nM] 2.5): 22%
EGFR % Activity Set1 (EGFR; Log[nM] 3.0): 10%
EGFR % Activity Set2 (EGFR; Log[nM] 3.0): 10%
EGFR % Activity Set3 (EGFR; Log[nM] 3.0): 12%
EGFR % Activity Set1 (EGFR; Log[nM] 3.5): 4%
EGFR % Activity Set2 (EGFR; Log[nM] 3.5): 4%
EGFR % Activity Set3 (EGFR; Log[nM] 3.5): 4%
EGFR % Activity Set1 (EGFR; Log[nM] 4.0): 2%
EGFR % Activity Set2 (EGFR; Log[nM] 4.0): 2%
EGFR % Activity Set3 (EGFR; Log[nM] 4.0): 2%
EGFR % Activity Set1 (EGFR; Log[nM] 4.5): 1%
EGFR % Activity Set2 (EGFR; Log[nM] 4.5): 1%
EGFR % Activity Set3 (EGFR; Log[nM] 4.5): 1%
EGFR % Activity Set1 (EGFR; Log[nM] 5.0): 1%
EGFR % Activity Set2 (EGFR; Log[nM] 5.0): 1%
EGFR % Activity Set3 (EGFR; Log[nM] 5.0): 1%
IC50 (aurora A kinase (AURKA); 10 µM ATP, triplicate, read-out: AURKA IC50 ± SD): 5.15 ± 0.37 µM
IC50 (aurora A kinase (AURKA); 10 µM ATP/0.2 mg/ml Kemptide, read-out: Aurora A IC50 (dose-response curve, supplement)): 5.2 µM
Aurora A % Activity Set1 (aurora A kinase (AURKA); Log[nM] 0): 98%
Aurora A % Activity Set2 (aurora A kinase (AURKA); Log[nM] 0): 101%
Aurora A % Activity Set3 (aurora A kinase (AURKA); Log[nM] 0): 97%
Aurora A % Activity Set1 (aurora A kinase (AURKA); Log[nM] 1.0): 99%
Aurora A % Activity Set2 (aurora A kinase (AURKA); Log[nM] 1.0): 98%
Aurora A % Activity Set3 (aurora A kinase (AURKA); Log[nM] 1.0): 100%
Aurora A % Activity Set1 (aurora A kinase (AURKA); Log[nM] 1.5): 104%
Aurora A % Activity Set2 (aurora A kinase (AURKA); Log[nM] 1.5): 108%
Aurora A % Activity Set3 (aurora A kinase (AURKA); Log[nM] 1.5): 102%
Aurora A % Activity Set1 (aurora A kinase (AURKA); Log[nM] 2.0): 105%
Aurora A % Activity Set2 (aurora A kinase (AURKA); Log[nM] 2.0): 107%
Aurora A % Activity Set3 (aurora A kinase (AURKA); Log[nM] 2.0): 104%
Aurora A % Activity Set1 (aurora A kinase (AURKA); Log[nM] 2.5): 103%
Aurora A % Activity Set2 (aurora A kinase (AURKA); Log[nM] 2.5): 99%
Aurora A % Activity Set3 (aurora A kinase (AURKA); Log[nM] 2.5): 101%
Aurora A % Activity Set1 (aurora A kinase (AURKA); Log[nM] 3.0): 88%
Aurora A % Activity Set2 (aurora A kinase (AURKA); Log[nM] 3.0): 93%
Aurora A % Activity Set3 (aurora A kinase (AURKA); Log[nM] 3.0): 86%
Aurora A % Activity Set1 (aurora A kinase (AURKA); Log[nM] 3.5): 66%
Aurora A % Activity Set2 (aurora A kinase (AURKA); Log[nM] 3.5): 69%
Aurora A % Activity Set3 (aurora A kinase (AURKA); Log[nM] 3.5): 68%
Aurora A % Activity Set1 (aurora A kinase (AURKA); Log[nM] 4.0): 25%
Aurora A % Activity Set2 (aurora A kinase (AURKA); Log[nM] 4.0): 28%
Aurora A % Activity Set3 (aurora A kinase (AURKA); Log[nM] 4.0): 25%
Aurora A % Activity Set1 (aurora A kinase (AURKA); Log[nM] 4.5): 11%
Aurora A % Activity Set2 (aurora A kinase (AURKA); Log[nM] 4.5): 11%
Aurora A % Activity Set3 (aurora A kinase (AURKA); Log[nM] 4.5): 11%
Aurora A % Activity Set1 (aurora A kinase (AURKA); Log[nM] 5.0): 9%
Aurora A % Activity Set2 (aurora A kinase (AURKA); Log[nM] 5.0): 10%
Aurora A % Activity Set3 (aurora A kinase (AURKA); Log[nM] 5.0): 9%
SMILES: Clc1ccc(Nc2ncnc3[nH]ccc23)cc1 [Compound 4, N^4-(4-chlorophenyl)-7H-pyrrolo[2,3-d]pyrimidine-4-amine]
